Results reported in article PMC12022903, “Evaluation of drug-drug interaction between Suraxavir Marboxil (GP681) and itraconazole, and assessment of the impact of gene polymorphism” (Frontiers in Pharmacology, 2025).
Values joined by “and” are separate entries in the source; they are usually repeats but may differ in a detail not shown here. Equal values may be shown once. Read-outs that look alike come from different tables or passages of the source.

What was measured:
[1] = for GP1707D07 concentration: Period 1 GP681 monotherapy, individual subjects; for GP1707D07 concentration, Geo Mean / GP1707D07 concentration, Mean: plasma; for GP1707D07 concentration, Geo Mean: Geo Mean of subjects 301-312, Period 2 GP681-itraconazole co-administration; for GP1707D07 concentration, Mean: Mean of subjects 301-312, Period 2 GP681-itraconazole co-administration
MDR1 = test system: MDR1; design: method as in unpublished data; settings: preclinical studies; ref unpublished data; cited from earlier work
BCRP = test system: BCRP; design: method as in unpublished data; settings: preclinical studies; ref unpublished data; cited from earlier work
[2] = test system: avian influenza virus strains; settings: ref unpublished data; cited from earlier work

O=C1c2c(O)c(=O)ccn2N([C@@H]2c3ccccc3SCc3c2ccc(F)c3F)[C@@H]2COC3(CC3)CN12 [GP1707D07]
time from which GP1707D07 concentrations exceed the clinical effective concentration ([1]; GP681 20 mg + itraconazole, post-dose, threshold 6.87 ng/mL): 1 h
GP1707D07 concentration ([1]; 0.5h): 17.9 ng/mL and 0.6 ng/mL and 10.8 ng/mL and 2.8 ng/mL and 8.3 ng/mL and 1.4 ng/mL
GP1707D07 concentration ([1]; 1h): 23.5 ng/mL and 1.8 ng/mL and 16.5 ng/mL and 6.2 ng/mL and 10.1 ng/mL and 5.6 ng/mL
GP1707D07 concentration ([1]; 2h): 33.1 ng/mL and 4.5 ng/mL and 26.9 ng/mL and 7.2 ng/mL and 12.6 ng/mL and 9.4 ng/mL
GP1707D07 concentration ([1]; 3h): 44.4 ng/mL and 11.9 ng/mL and 25.1 ng/mL and 6.4 ng/mL and 14.2 ng/mL and 10.4 ng/mL
GP1707D07 concentration ([1]; 4h): 36.1 ng/mL and 13.4 ng/mL and 24.0 ng/mL and 5.7 ng/mL and 15.4 ng/mL and 11.0 ng/mL
GP1707D07 concentration ([1]; 5h): 30.8 ng/mL and 14.9 ng/mL and 20.4 ng/mL and 7.0 ng/mL and 15.5 ng/mL and 12.0 ng/mL
GP1707D07 concentration ([1]; 6h): 30.7 ng/mL and 18.0 ng/mL and 19.4 ng/mL and 7.0 ng/mL and 15.2 ng/mL and 11.0 ng/mL
GP1707D07 concentration ([1]; 8h): 24.5 ng/mL and 14.2 ng/mL and 17.9 ng/mL and 6.9 ng/mL and 13.5 ng/mL and 9.5 ng/mL
GP1707D07 concentration ([1]; 12h): 21.5 ng/mL and 12.6 ng/mL and 14.5 ng/mL and 6.6 ng/mL and 11.1 ng/mL and 8.8 ng/mL and 20.0 ng/mL
GP1707D07 concentration ([1]; 24h): 17.5 ng/mL and 10.3 ng/mL and 12.6 ng/mL and 5.4 ng/mL and 10.1 ng/mL and 6.3 ng/mL and 14.7 ng/mL
GP1707D07 concentration ([1]; 36h): 14.8 ng/mL and 8.1 ng/mL and 10.5 ng/mL and 4.4 ng/mL and 8.8 ng/mL and 5.4 ng/mL and 11.8 ng/mL
GP1707D07 concentration ([1]; 48h): 12.3 ng/mL and 6.9 ng/mL and 7.4 ng/mL and 3.9 ng/mL and 6.7 ng/mL and 5.1 ng/mL and 9.0 ng/mL
GP1707D07 concentration ([1]; 72h): 7.8 ng/mL and 5.1 ng/mL and 4.9 ng/mL and 3.2 ng/mL and 6.0 ng/mL and 3.6 ng/mL and 7.6 ng/mL
GP1707D07 concentration ([1]; 120h): 4.8 ng/mL and 3.5 ng/mL and 3.2 ng/mL and 1.7 ng/mL and 4.0 ng/mL and 2.1 ng/mL and 3.6 ng/mL
GP1707D07 concentration ([1]; 168h): 2.4 ng/mL and 2.0 ng/mL and 1.9 ng/mL and 1.1 ng/mL and 2.2 ng/mL and 1.3 ng/mL
GP1707D07 concentration ([1]; 264h): 1.3 ng/mL and 1.0 ng/mL and 0.8 ng/mL and 0.7 ng/mL
GP1707D07 concentration, Geo Mean ([1]; D26, 0.5h): 4.4 ng/mL
GP1707D07 concentration, Geo Mean ([1]; D26, 1h): 8.5 ng/mL
GP1707D07 concentration, Geo Mean ([1]; D26, 2h): 15.2 ng/mL
GP1707D07 concentration, Geo Mean ([1]; D26, 3h): 17.9 ng/mL
GP1707D07 concentration, Geo Mean ([1]; D26, 4h): 19.7 ng/mL
GP1707D07 concentration, Geo Mean ([1]; D26, 5h): 20.9 ng/mL
GP1707D07 concentration, Geo Mean ([1]; D26, 6h): 20.4 ng/mL
GP1707D07 concentration, Geo Mean ([1]; D26, 8h): 19.0 ng/mL
GP1707D07 concentration, Geo Mean ([1]; D26, 12h): 16.7 ng/mL
GP1707D07 concentration, Geo Mean ([1]; D26, 24h): 14.9 ng/mL
GP1707D07 concentration, Geo Mean ([1]; D26, 36h): 13.5 ng/mL
GP1707D07 concentration, Geo Mean ([1]; D26, 48h): 12.1 ng/mL
GP1707D07 concentration, Geo Mean ([1]; D26, 72h): 9.6 ng/mL
GP1707D07 concentration, Geo Mean ([1]; D26, 120h): 6.8 ng/mL
GP1707D07 concentration, Geo Mean ([1]; D26, 168h): 5.1 ng/mL
GP1707D07 concentration, Geo Mean ([1]; D26, 264h): 3.2 ng/mL
GP1707D07 concentration, Mean ([1]; D26, 0h): 0.0 ng/mL
GP1707D07 concentration, Mean ([1]; D26, 0.5h): 6.4 ng/mL
GP1707D07 concentration, Mean ([1]; D26, 1h): 10.4 ng/mL
GP1707D07 concentration, Mean ([1]; D26, 2h): 17.0 ng/mL
GP1707D07 concentration, Mean ([1]; D26, 3h): 19.7 ng/mL
GP1707D07 concentration, Mean ([1]; D26, 4h): 21.3 ng/mL
GP1707D07 concentration, Mean ([1]; D26, 5h): 22.0 ng/mL
GP1707D07 concentration, Mean ([1]; D26, 6h): 21.6 ng/mL
GP1707D07 concentration, Mean ([1]; D26, 8h): 20.0 ng/mL
GP1707D07 concentration, Mean ([1]; D26, 12h): 17.6 ng/mL
GP1707D07 concentration, Mean ([1]; D26, 24h): 15.6 ng/mL
GP1707D07 concentration, Mean ([1]; D26, 36h): 14.2 ng/mL
GP1707D07 concentration, Mean ([1]; D26, 48h): 12.5 ng/mL
GP1707D07 concentration, Mean ([1]; D26, 72h): 10.1 ng/mL
GP1707D07 concentration, Mean ([1]; D26, 120h): 7.1 ng/mL
GP1707D07 concentration, Mean ([1]; D26, 168h): 5.4 ng/mL
GP1707D07 concentration, Mean ([1]; D26, 264h): 3.3 ng/mL
average ratio of GP1707D07 concentration at each time point (Period 2: Period 1) ([1]; within 24 h post-dose): 1.7–2.0
substrate for the MDR1 transporter (MDR1): Neither Suraxavir Marboxil (GP681) nor its metabolite, GP1707D07, serves as substrates
substrate for the BCRP transporter (BCRP): Neither Suraxavir Marboxil (GP681) nor its metabolite, GP1707D07, serves as substrates
in vitro antiviral activity (average EC50 and EC90) compared with baloxavir [2]: better in vitro antiviral activity
in vitro inhibitory activity against avian influenza virus strains [2]: inhibitory activity against all tested avian influenza virus strains
